Several values for one entry are separate records, joined by “and”; a condition that tells them apart may be missing. Identical values can stand only once.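 Assay format: 96-well plates, 48-hour exposure. The concentration for 50% growth inhibition is given as GI50. TGI is the concentration that stops growth completely.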
Legend:
Assay in all cases: DTP human tumour cell line panel, 48 h
SK-MEL-5 melanoma = tested on: SK-MEL-5 melanoma
HOP-92 NSCLC = tested on: HOP-92 NSCLC
A498 renal = tested on: A498 renal
NCI-H460 lung = tested on: NCI-H460 lung
UACC-62 melanoma = tested on: UACC-62 melanoma
MOLT-4 leukemia = tested on: MOLT-4 leukemia
SN12C renal = tested on: SN12C renal
SNB-75 CNS = tested on: SNB-75 CNS
SF-268 CNS = tested on: SF-268 CNS
NCI-H522 lung = tested on: NCI-H522 lung

| Structure (SMILES) | GI50 (SK-MEL-5 melanoma) | TGI (SK-MEL-5 melanoma) | GI50 (HOP-92 NSCLC) | TGI (HOP-92 NSCLC) | GI50 (A498 renal) | TGI (A498 renal) | GI50 (NCI-H460 lung) | TGI (NCI-H460 lung) | GI50 (UACC-62 melanoma) | TGI (UACC-62 melanoma) | GI50 (MOLT-4 leukemia) | TGI (MOLT-4 leukemia) | GI50 (SN12C renal) | TGI (SN12C renal) | GI50 (SNB-75 CNS) | TGI (SNB-75 CNS) | GI50 (SF-268 CNS) | TGI (SF-268 CNS) | GI50 (NCI-H522 lung) | TGI (NCI-H522 lung) |
| --- | --- | --- | --- | --- | --- | --- | --- | --- | --- | --- | --- | --- | --- | --- | --- | --- | --- | --- | --- | --- |
| O=C(Nc1ccc(-n2cc(-c3ccncc3)c(-c3ccc(Cl)c(O)c3)n2)cc1)c1cc(C(F)(F)F)cc(C(F)(F)F)c1 | 1.55 µM | 3.63 µM | 3.89 µM | 26.2 µM | 14.8 µM | 35 µM | 3.82 µM | 14 µM | 14.4 µM | > 100 µM | 8.87 µM | > 100 µM | 7.14 µM | 89.9 µM | 2.82 µM | 28.2 µM | 7.39 µM | 51.6 µM | 14 µM | 57.7 µM |
| Cn1cc(-c2ccc3ncc(-c4ccc(CC(=O)Nc5cc(C(C)(C)C)nn5C)cc4)cc3c2)cn1 | 0.756 µM | 3 µM | 2.45 µM | > 20 µM | 0.422 µM | 1.66 µM | 0.786 µM | > 20 µM | 1.26 µM | 6.65 µM | 0.706 µM | 3.25 µM | 0.854 µM | > 20 µM | 0.37 µM | > 20 µM | 1.45 µM | > 20 µM | 0.995 µM | 9.06 µM |
| O=C1Nc2ccc(-c3cccnc3)cc2/C1=C/c1cc(Br)c(O)c(Br)c1 | 3.95 µM | 7.78 µM | 8.32 µM | > 25 µM | 3.86 µM | 11.5 µM | 6.97 µM | > 25 µM | 3.54 µM | 9.87 µM | 8.04 µM | > 25 µM | 9.12 µM | > 25 µM | > 13 µM | > 25 µM | 7.71 µM | > 25 µM | 4.38 µM | 13.7 µM |
| COc1ccccc1/C=C(\NC(=O)c1ccccc1)c1nc2ccc(Cl)cc2[nH]1 | – | 33.7 µM | – | 56.8 µM | – | 80.9 µM | – | > 100 µM | – | 55.3 µM | – | 54.9 µM | – | > 100 µM | – | 70.7 µM | – | > 100 µM | – | 49.5 µM |
| CCOC1c2nc3ccccc3nc2-c2ccccc2N1C(C)=O (stereo not given) | – | – | – | > 100 µM | – | > 100 µM | – | > 100 µM | – | > 100 µM | – | > 100 µM | – | > 100 µM | – | > 100 µM | – | – | – | – |
| C[C@]12CCc3nc(Nc4ccc(O)cc4)sc3C1=CC[C@@H]1[C@@H]2CC[C@]2(C)/C(=N/NC(N)=S)CC[C@@H]12 | 1.66 µM | 3.14 µM | 1.71 µM | 4.2 µM | 2.09 µM | 4.9 µM | 0.525 µM | 1.94 µM | 1.43 µM | 2.89 µM | 0.47 µM | 3.39 µM | 1.53 µM | 3.37 µM | 0.68 µM | 2.46 µM | 1.34 µM | 3.98 µM | – | – |
| CC(C)(C)O/N=C/c1cc(NC(=S)c2ccccc2)ccc1Cl | – | 41.5 µM | – | 34.4 µM | – | 27.6 µM | – | 24.3 µM | – | 32.7 µM | – | 39.7 µM | – | 26 µM | – | – | – | 58.5 µM | – | 28.2 µM |
| O=C1c2cccc3c(N4CCOCC4)ccc(c23)C(=O)N1CCN1CCN(CCCCCN2CCN(CCN3C(=O)c4cccc5c(N6CCOCC6)ccc(c45)C3=O)CC2)CC1 | 57.2 µM | > 100 µM | 76.6 µM | > 100 µM | > 100 µM | > 100 µM | > 100 µM | > 100 µM | 77.6 µM | > 100 µM | – | – | 57.4 µM | > 100 µM | > 100 µM | > 100 µM | > 100 µM | > 100 µM | – | – |
| Oc1cn(-c2ccc(Cl)cc2)nc1-c1n[nH]c(=S)n1-c1ccc(F)cc1 | 14.3 µM | 35.9 µM | 32.2 µM | > 100 µM | 34.6 µM | 76.5 µM | 11.9 µM | 40.8 µM | 12 µM | 28 µM | 14.7 µM | > 100 µM | 16.9 µM | 50.3 µM | – | – | 14.7 µM | 70.8 µM | 18 µM | 64.8 µM |
| O=C(Nc1nc2ccc(S(=O)(=O)Nc3ccc(C4(C(F)(F)F)CC4)cc3)cc2[nH]1)c1cnccn1 | 0.693 µM | 4.3 µM | 1.04 µM | 2.4 µM | 2.26 µM | 8.17 µM | 1.07 µM | 12.2 µM | 1.51 µM | 15.4 µM | – | – | 4.46 µM | 17.6 µM | 1.53 µM | 6.45 µM | 4.21 µM | 20.6 µM | 1.07 µM | 14.4 µM |
| CCN(CC)CCNc1n[n+]([O-])c2cc([N+](=O)[O-])ccc2[n+]1[O-] | – | 2.01 µM and 1.56 µM and 1.7 µM | 0.163 µM and 0.297 µM and 0.449 µM | 1.93 µM and 2.53 µM and 2.28 µM | – | 7.99 µM and 4.69 µM and 6.23 µM | 0.264 µM and 0.0353 µM and 0.0939 µM | 1.63 µM and 1.16 µM and 1.28 µM | 0.532 µM and 0.309 µM and 0.244 µM | 2.11 µM and 1.56 µM and 1.5 µM | 0.0833 µM and 0.0383 µM and 0.0339 µM | 0.292 µM and 0.198 µM and 0.176 µM | 0.675 µM and 0.249 µM and 0.255 µM | 2.97 µM and 2.33 µM and 2.58 µM | 2.01 µM and 1.16 µM and 0.905 µM | 14.5 µM and 14.3 µM and 10 µM | – | 8.56 µM and 4.92 µM and 5.23 µM | – | – |
| CS(=O)(=O)OCCN1CCN(C(=O)c2ccc(Cl)c3c(Nc4ccc(S(=O)(=O)N=C(N)N)cc4)c4ccccc4nc23)CC1 | – | > 100 µM | – | > 100 µM | – | > 100 µM | – | > 100 µM | – | > 100 µM | – | > 100 µM | – | > 100 µM | – | > 100 µM | – | > 100 µM | – | – |
| Nc1c(C(=O)Nc2ccccc2)sc2nc3c(cc12)C(=O)CCC3 | 0.249 µM | 5.7 µM | – | – | 0.282 µM | – | 0.346 µM | – | 0.557 µM | > 100 µM | – | > 100 µM | 6.2 µM | > 100 µM | 0.494 µM | > 88.7 µM | 1.02 µM | > 100 µM | 0.215 µM | 1.29 µM |
| CCN(CC)CCCC(Nc1c2ccc(Cl)cc2nc2ccc(OC)cc12)c1ccc(Cl)cc1 (stereo not given) | 1.25 µM | 2.54 µM | 1.15 µM | 2.81 µM | 1.26 µM | 2.64 µM | 1.33 µM | 2.88 µM | – | – | 0.761 µM | 2.3 µM | – | – | 1.16 µM | 2.44 µM | 1.43 µM | 3.05 µM | 1.46 µM | 3.09 µM |
| NC(=O)c1nc(-c2c(F)cccc2Cl)oc1Nc1ccc(C(=O)N2CCOCC2)cc1 | 10.5 µM | 35.8 µM | 0.262 µM | 2.11 µM | 0.544 µM | 3.28 µM | 0.805 µM | > 100 µM | – | – | 2.03 µM | 37.7 µM | 2.12 µM | > 100 µM | – | – | 3.07 µM | > 100 µM | 2.11 µM | 57.1 µM |
| O=C(Nc1ccccc1C(=O)NC(=O)c1ccccc1NC(=O)c1ccccc1)c1ccccc1 | – | 12.2 µM | – | 6.5 µM | – | 33.3 µM | – | 28.1 µM | – | 5.54 µM | – | – | – | 17.2 µM | – | 8.87 µM | – | 22.2 µM | – | – |
| N#Cc1ccccc1Sc1ccccc1N | – | 77.3 µM | – | > 100 µM | – | > 100 µM | – | > 100 µM | – | > 100 µM | – | > 100 µM | – | > 100 µM | – | – | – | > 100 µM | – | – |
| CCCC(O)[C@@]1(CC)CC(C)C(O)(C2(C)C[C@H](C)[C@@H](C(CC)C(=O)C(C)[C@@H](O)[C@H](C)C3OC(O)(C(CC)C(=O)O)[C@@H](C)C(O)C3CC)O2)O1 (stereo not given in full) | – | 1.18 µM | – | 1.75 µM | – | 2.15 µM | – | 2.14 µM | – | 2.86 µM | – | – | – | 2.39 µM | – | 2.18 µM | – | 2.21 µM | – | 0.537 µM |
| CCC(Oc1ccc(OC)c2c1C(=O)CCC2)C(=O)O (stereo not given) | – | > 100 µM | – | – | – | > 100 µM | – | > 100 µM | – | > 100 µM | – | > 100 µM | – | > 100 µM | – | > 100 µM | – | > 100 µM | – | > 100 µM |
| COc1ccc([C@@]23Oc4cc(OC)cc(OC)c4[C@]2(O)[C@H](O)[C@H](C(=O)N(C)C)[C@H]3c2ccccc2)cc1 | 0.0227 µM | 0.0144 µM and 0.139 µM | 0.0304 µM | 0.0741 µM and 0.4 µM | 0.0155 µM | 0.0234 µM and 0.00719 µM and 0.0403 µM | – | – | 0.0243 µM | – | – | – | 0.0192 µM | 0.329 µM and 0.0664 µM and 0.186 µM | 0.0149 µM | – | 0.0152 µM | – | 0.0179 µM | – |
| CN(C)C1C(=O)C(C(N)=O)=C(O)C2(O)C(=O)C3=C(O)c4c(O)cccc4C(C)(O)C3CC12.[Cl][Sb]([Cl])[Cl] (stereo not given) | 1.78 µM | 4.36 µM | 2.56 µM | 7.61 µM | 2.96 µM | 11.4 µM | 3.27 µM | 12.3 µM | 2.55 µM | 7.45 µM | 3.91 µM | 11 µM | 3.91 µM | 14.9 µM | – | – | – | – | 1.86 µM | 4.1 µM |
| N#CC(C(=O)Nc1ccccc1)C1=C(Cl)C(=O)c2ccccc2C1=O (stereo not given) | – | 30.2 µM | – | 27.9 µM | – | > 100 µM | – | > 100 µM | – | 33.3 µM | – | – | – | 29.1 µM | – | – | – | 31 µM | – | 29.3 µM |
| CCCCCCCCCCCCCCCC(=O)OCC1OC(n2cc(F)c(=O)[nH]c2=O)C(NC(=O)OCc2ccccc2)C(O)C1O (stereo not given) | – | 36.1 µM | – | 31.5 µM | – | 35.5 µM | – | 38.9 µM | – | 35.3 µM | – | 38.3 µM | – | 38 µM | – | 37.5 µM | – | 54 µM | – | – |
| OC1=CN=C(c2ccccc2)Oc2ccccc21 | – | > 100 µM | – | > 100 µM | – | > 100 µM | – | > 100 µM | – | > 100 µM | – | > 100 µM | – | > 100 µM | – | > 100 µM | – | > 100 µM | – | – |

Source: PubChem BioAssay (NCI)
